pIC50: −log10 of the molar value.
Legend:
Type in all cases: biochemical
Conditions in all cases: recombinant human kinase domain, Caliper mobility shift
JAK2 = JAK2 (Homo sapiens (Human), UniProt O60674); assay: JAK Caliper enzyme assay at 1 mM ATP (JAK2)
Protocol: (§1) Compounds of the invention were evaluated by in vitro methods to determine their respective ability to inhibit the JAK kinases (TYK2, JAK1, JAK2, JAK3).
(§2) The human JAK inhibitory activity was determined by using a microfluidic assay to monitor phosphorylation of a synthetic peptide by the recombinant human kinase domain of each of the four members of the JAK family, JAK1, JAK2, JAK3 and TYK2. […] Each assay condition was optimized for enzyme concentration and room temperature incubation time to obtain a conversion rate of 20% to 30% phosphorylated peptide product. Reactions were terminated by the addition of stop buffer containing EDTA. Utilizing the LabChip 3000 mobility shift technology (Caliper Life Science), each assay reaction was sampled to determine the level of phosphorylation. This technology is separation-based, allowing direct detection of fluorescently labeled substrates and products. Separations are controlled by a combination of vacuum pressure and electric field strength optimized for each peptide substrate.
(§3) JAK Caliper Enzyme Assay at 1 mM ATP
(§4) Compounds were added to a 384-well plate. Reaction mixtures contained 10 mM HEPES, pH 7.4, 10 mM MgCl2, 0.01% BSA, 0.0005% Tween 20, 1 mM ATP and 1 μM peptide substrate. […] The assays were initiated by the addition of 20 nM JAK1, 1 nM JAK2, 1 nM JAK or 1 nM TYK2 enzyme and were incubated at room temperature for three hours for JAK1, 60 minutes for JAK2, 75 minutes for JAK3 or 135 minutes for TYK2. Enzyme concentrations and incubation times were optimized for each new enzyme preps and were modified slightly over time to ensure 20% to 30% phosphorylation. The assays were stopped with 15 μL of 180 mM HEPES, pH 7.4, 20 mM EDTA, and 0.2% Coating Reagent 3. The assay plates were placed on a Caliper Life Science LC3000 instrument, and each well was sampled using appropriate separation conditions to measure the unphosphorylated and phosphorylated peptide.
(§5) The data was collected using the HTS Well Analyzer software from Caliper Life Sciences. The data output for data analysis is the percent product converted calculated on peak height (Equation 1). % product converted=100*((product)/(product+substrate)) Equation 1: […]
(§6) The percent effect at each compound concentration was calculated based on the positive and negative control well contained within each assay plate (Equation 2). […] The negative control wells contained DMSO alone (at the same concentration as the compound wells) that was used to set the baseline activity in the assay (i.e., uninhibited JAK1, JAK2, JAK3 or TYK2). % effect=100*((sample well−negative control)/(positive control-negative control)) Equation 2: The percent effect was plotted against the compound concentration compound.

TYK2 = TYK2 (Homo sapiens (Human), UniProt P29597); assay: JAK Caliper enzyme assay at 1 mM ATP (TYK2)
TYK2, sequence (P29597 897-1176): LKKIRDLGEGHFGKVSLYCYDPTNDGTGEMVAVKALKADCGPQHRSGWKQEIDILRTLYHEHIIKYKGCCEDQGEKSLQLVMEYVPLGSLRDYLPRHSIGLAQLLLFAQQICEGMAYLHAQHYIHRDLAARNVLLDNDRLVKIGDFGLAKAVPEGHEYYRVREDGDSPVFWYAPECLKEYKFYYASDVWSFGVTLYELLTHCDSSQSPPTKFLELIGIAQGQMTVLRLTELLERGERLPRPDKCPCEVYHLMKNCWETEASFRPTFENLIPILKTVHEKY
Protocol: as §1, §2, §3, §4, §5, §6

JAK3 = JAK3 (Homo sapiens (Human), UniProt P52333); assay: JAK Caliper enzyme assay at 1 mM ATP (JAK3)
JAK3, sequence (P52333 822-1111): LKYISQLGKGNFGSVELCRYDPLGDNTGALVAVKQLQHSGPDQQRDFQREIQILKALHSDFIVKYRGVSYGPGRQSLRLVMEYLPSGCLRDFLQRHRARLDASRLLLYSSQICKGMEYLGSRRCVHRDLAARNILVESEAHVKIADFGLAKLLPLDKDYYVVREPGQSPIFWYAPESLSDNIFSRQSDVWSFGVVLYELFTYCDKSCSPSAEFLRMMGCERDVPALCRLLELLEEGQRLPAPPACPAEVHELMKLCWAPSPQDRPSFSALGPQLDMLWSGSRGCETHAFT
Protocol: as §1, §2, §3, §4, §5, §6

JAK1 = JAK1 (Homo sapiens (Human), UniProt P23458); assay: JAK Caliper enzyme assay at 1 mM ATP (JAK1)
JAK1, sequence (P23458 875-1153): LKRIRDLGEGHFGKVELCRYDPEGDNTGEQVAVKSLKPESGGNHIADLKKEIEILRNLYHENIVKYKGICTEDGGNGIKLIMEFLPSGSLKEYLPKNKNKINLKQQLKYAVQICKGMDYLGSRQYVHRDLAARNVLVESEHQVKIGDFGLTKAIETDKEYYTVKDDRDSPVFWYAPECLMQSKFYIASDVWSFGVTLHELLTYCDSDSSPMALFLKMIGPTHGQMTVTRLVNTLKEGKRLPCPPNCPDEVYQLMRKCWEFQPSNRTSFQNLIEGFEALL
Protocol: Compounds of the invention were evaluated by in vitro methods to determine their respective ability to inhibit the JAK kinases (TYK2, JAK1, JAK2, JAK3). The human JAK inhibitory activity was determined by using a microfluidic assay to monitor phosphorylation of a synthetic peptide by the recombinant human kinase domain of each of the four members of the JAK family, JAK1, JAK2, JAK3 and TYK2. […] Reactions were terminated by the addition of stop buffer containing EDTA. Utilizing the LabChip 3000 mobility shift technology (Caliper Life Science), each assay reaction was sampled to determine the level of phosphorylation. This technology is separation-based, allowing direct detection of fluorescently labeled substrates and products. Separations are controlled by a combination of vacuum pressure and electric field strength optimized for each peptide substrate. […] Compounds were added to a 384-well plate. […] Enzyme concentrations and incubation times were optimized for each new enzyme preps and were modified slightly over time to ensure 20% to 30% phosphorylation. […] The assay plates were placed on a Caliper Life Science LC3000 instrument, and each well was sampled using appropriate separation conditions to measure the unphosphorylated and phosphorylated peptide. The data was collected using the HTS Well Analyzer software from Caliper Life Sciences. […] The percent effect at each compound concentration was calculated based on the positive and negative control well contained within each assay plate (Equation 2). […] The percent effect was plotted against the compound concentration compound. […] Where max is the maximum asymptote (complete inhibition), min is the minimum asymptote (no inhibition) and s is the slope factor.

JAK2, sequence (O60674 849-1124): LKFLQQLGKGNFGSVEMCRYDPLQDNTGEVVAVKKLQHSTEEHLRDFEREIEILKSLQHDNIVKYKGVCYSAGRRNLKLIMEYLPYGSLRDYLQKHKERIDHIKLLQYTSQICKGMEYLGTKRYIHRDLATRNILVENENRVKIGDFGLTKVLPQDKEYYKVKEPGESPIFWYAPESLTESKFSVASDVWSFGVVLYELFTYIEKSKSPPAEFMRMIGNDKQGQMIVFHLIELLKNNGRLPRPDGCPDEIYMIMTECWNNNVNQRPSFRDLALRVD

pIC50 (JAK2) | pIC50 (TYK2) | pIC50 (JAK3) | pIC50 (JAK1) | Compound
6.35 | 7.28 | < 5.00 | 5.06 | Cn1cc(-c2cn3nccc3c(-c3cnn([C@]4(CC#N)C[C@@H](C#N)C4)c3)n2)nn1 [Example 33, (1r,3r)-3-(Cyanomethyl)-3-(4-(6-(1-methyl-1H-1,2,3-triazol-4-yl)pyrazolo[1,5-a]pyrazin-4-yl)-1H-pyrazol-1-yl)cyclobutane-1-carbonitrile]
6.96 | 7.47 | < 5.00 | 5.89 | Cc1nn([C@]2(CC#N)C[C@@H](C#N)C2)cc1-c1nc(-c2cnn(C)c2)cn2nccc12 [Example 21, (1r,3r)-3-(Cyanomethyl)-3-(3-methyl-4-(6-(1-methyl-1H-pyrazol-4-yl)pyrazolo[1,5-a]pyrazin-4-yl)-1H-pyrazol-1-yl)cyclobutane-1-carbonitrile]
7.42 | 8.10 | < 5.21 | 6.56 | Cn1cc(-c2cn3nccc3c(-c3cnn([C@]4(CC#N)C[C@H](CC#N)C4)c3)n2)cn1 [Example 11, 2,2′-((1s,3s)-1-(4-(6-(1-Methyl-1H-pyrazol-4-yl)pyrazolo[1,5-a]pyrazin-4-yl)-1H-pyrazol-1-yl)cyclobutane-1,3-diyl)diacetonitrile]
 | 7.46 | < 5.00 | 5.72 | CO[C@H]1C[C@](CC#N)(n2cc(-c3nc(-c4cc(NC(C)=O)[nH]n4)cn4nccc34)cn2)C1 [Example 5, N-(3-(4-(1-((1r,3s)-1-(Cyanomethyl)-3-methoxycyclobutyl)-1H-pyrazol-4-yl)pyrazolo[1,5-a]pyrazin-6-yl)-1H-pyrazol-5-yl)acetamide]
5.52 | 6.45 | < 5.00 | 5.41 | N#CC[C@]1(n2cc(-c3nc(-c4cc(C(N)=O)no4)cn4nccc34)cn2)C[C@H](C#N)C1 [Example 29, 5-(4-(1-((1r,3r)-3-Cyano-1-(cyanomethyl)cyclobutyl)-1H-pyrazol-4-yl)pyrazolo[1,5-a]pyrazin-6-yl)isoxazole-3-carboxamide]
6.12 | 5.79 | < 5.00 | 5.45 | Cc1cc2c(-c3cnn([C@]4(CC#N)C[C@@H](C#N)C4)c3)nc(-c3cnn(C)c3)cn2n1 [Example 36, (1r,3r)-3-(Cyanomethyl)-3-(4-(2-methyl-6-(1-methyl-1H-pyrazol-4-yl)pyrazolo[1,5-a]pyrazin-4-yl)-1H-pyrazol-1-yl)cyclobutane-1-carbonitrile]
 | 7.09 | < 5.00 | 5.97 | Cn1cc(-c2cn3nccc3c(-c3cnn([C@]4(CC#N)C[C@@H](O)C4)c3)n2)cn1 [Example 14, 2-((1r,3s)-3-Hydroxy-1-(4-(6-(1-methyl-1H-pyrazol-4-yl)pyrazolo[1,5-a]pyrazin-4-yl)-1H-pyrazol-1-yl)cyclobutyl)acetonitrile]
6.78 | 7.49 | < 5.00 | 5.46 | Cn1cc(-c2cn3nccc3c(-c3cnn([C@]4(CC#N)C[C@@H](C#N)C4)c3)n2)c(=O)[nH]1 [Example 37, (1r,3r)-3-(Cyanomethyl)-3-(4-(6-(1-methyl-3-oxo-2,3-dihydro-1H-pyrazol-4-yl)pyrazolo[1,5-a]pyrazin-4-yl)-1H-pyrazol-1-yl)cyclobutane-1-carbonitrile]
6.90 | 7.52 | < 5.00 | 5.59 | Cn1cc(-c2cn3nccc3c(-c3cnn([C@]4(CC#N)C[C@@H](C#N)C4)c3)n2)c(CO)n1 [Example 22, (1r,3r)-3-(Cyanomethyl)-3-(4-(6-(3-(hydroxymethyl)-1-methyl-1H-pyrazol-4-yl)pyrazolo[1,5-a]pyrazin-4-yl)-1H-pyrazol-1-yl)cyclobutane-1-carbonitrile]
 | 6.83 | < 5.00 | 5.49 | Cn1cc(-c2cn3nccc3c(-c3cnn([C@]4(CC#N)C[C@H](O)C4)c3)n2)cn1 [Example 13, 2-((1s,3r)-3-Hydroxy-1-(4-(6-(1-methyl-1H-pyrazol-4-yl)pyrazolo[1,5-a]pyrazin-4-yl)-1H-pyrazol-1-yl)cyclobutyl)acetonitrile]

Second part, the molecule before the results:

Compound | pIC50 (JAK2) | pIC50 (TYK2) | pIC50 (JAK3) | pIC50 (JAK1)
CNC(=O)c1cc(-c2cn3nccc3c(-c3cnn([C@]4(CC#N)C[C@@H](OC)C4)c3)n2)[nH]n1 [Example 6, 5-(4-(1-((1r,3s)-1-(Cyanomethyl)-3-methoxycyclobutyl)-1H-pyrazol-4-yl)pyrazolo[1,5-a]pyrazin-6-yl)-N-methyl-1H-pyrazole-3-carboxamide] | 6.30 |  | < 5.00 | 
Cn1cc(-c2cn3nccc3c(-c3cnn(C4(CC#N)CN(S(=O)(=O)C5CC5)C4)c3)n2)cn1 [Example 9, 2-(1-(Cyclopropylsulfonyl)-3-(4-(6-(1-methyl-1H-pyrazol-4-yl)pyrazolo[1,5-a]pyrazin-4-yl)-1H-pyrazol-1-yl)azetidin-3-yl)acetonitrile] | 7.31 | 8.10 | < 5.00 | 6.73
N#CCC1(n2cc(-c3nc(-c4cc(CO)[nH]n4)cn4nccc34)cn2)CN(CC2CC2)C1 [Example 2, 2-(1-(Cyclopropylmethyl)-3-(4-(6-(5-(hydroxymethyl)-1H-pyrazol-3-yl)pyrazolo[1,5-a]pyrazin-4-yl)-1H-pyrazol-1-yl)azetidin-3-yl)acetonitrile] | 6.52 | 7.21 | < 5.00 | 5.98
CO[C@H]1C[C@@](CC#N)(n2cc(-c3nc(-c4cnn(C)c4)cn4nccc34)cn2)C1 [Example 16, 2-((1s,3r)-3-Methoxy-1-(4-(6-(1-methyl-1H-pyrazol-4-yl)pyrazolo[1,5-a]pyrazin-4-yl)-1H-pyrazol-1-yl)cyclobutyl)acetonitrile] | 7.00 |  | 5.00 | 6.18
Cn1cc(-c2cn3nccc3c(-c3cnn([C@]4(CC#N)C[C@@H](c5ccn[nH]5)C4)c3)n2)cn1 [Example 18, 2-((1r,3r)-1-(4-(6-(1-Methyl-1H-pyrazol-4-yl)pyrazolo[1,5-a]pyrazin-4-yl)-1H-pyrazol-1-yl)-3-(1H-pyrazol-5-yl)cyclobutyl)acetonitrile] | 6.69 | 7.33 | 5.00 | 5.97
Cn1cc(-c2cn3nccc3c(-c3cnn(C4(CC#N)CN(S(C)(=O)=O)C4)c3)n2)cn1 [Example 8, 2-(3-(4-(6-(1-Methyl-1H-pyrazol-4-yl)pyrazolo[1,5-a]pyrazin-4-yl)-1H-pyrazol-1-yl)-1-(methylsulfonyl)azetidin-3-yl)acetonitrile] |  | 7.96 | < 5.03 | 6.58
CCN1CC(CC#N)(n2cc(-c3nc(-c4cc(CO)[nH]n4)cn4nccc34)cn2)C1 [Example 3, 2-(1-Ethyl-3-(4-(6-(5-(hydroxymethyl)-1H-pyrazol-3-yl)pyrazolo[1,5-a]pyrazin-4-yl)-1H-pyrazol-1-yl)azetidin-3-yl)acetonitrile] |  | 7.19 |  | 5.64
CO[C@H]1C[C@](CC#N)(n2cc(-c3nc(-c4cnn(C)c4)cn4nccc34)cn2)C1 [Example 15, 2-((1r,3s)-3-Methoxy-1-(4-(6-(1-methyl-1H-pyrazol-4-yl)pyrazolo[1,5-a]pyrazin-4-yl)-1H-pyrazol-1-yl)cyclobutyl)acetonitrile] | 6.64 |  | < 5.04 | 5.83

— patent US10144738B2, “Pyrazolo[1,5-A]PYRAZIN-4-YL derivatives” (Pfizer Inc., priority 2016, dated 2018)
